According to the supplement of paper PMC10307832:

Assays:
Assay in all cases: relative viability (nuclei count vs DMSO), 5 days (fraction); higher = more cells survive
[1] = compound: CCOC1=CC=CC=C1N=NC2=C(NN(C2=O)C3=NC(=CS3)C4=CC=CC=C4)C [BAM7] + COc1cccc2cc(-c3nc([C@H]4CC[C@H](C(=O)O)CC4)n4ncnc(N)c34)[nH]c12 [OSI-027] (partner 0.5 µM)
Summary of the method: (§1)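 Cells from lung cancer lines were seeded into 1536-well plates and, one day later, dosed by pin tool. Treatments were either a single drug or a fixed dose of an anchor drug with five library-drug doses (not always all listed) in √10 steps. After 5 days, nuclei were stained in a one-step fixation (final 0.05% Triton X-100, 1% formaldehyde, 1 ug/ml Hoechst) and counted on 4× images, and relative viability is the treated-to-vehicle nuclei ratio, as the median of duplicate plates.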

[2] = compound: CCOC1=CC=CC=C1N=NC2=C(NN(C2=O)C3=NC(=CS3)C4=CC=CC=C4)C [BAM7] + CS(=O)(=O)N1CCN(Cc2cc3nc(-c4cccc5[nH]ncc45)nc(N4CCOCC4)c3s2)CC1 [Pictilisib] (partner 1 µM)
Summary of the method: as §1

[3] = compound: CCn1c(-c2nonc2N)nc2c(C#CC(C)(C)O)ncc(OC[C@H]3CCCNC3)c21 + CS(=O)(=O)CCNCc1ccc(-c2ccc3ncnc(Nc4ccc(OCc5cccc(F)c5)c(Cl)c4)c3c2)o1 [Lapatinib] (partner 2 µM)
Summary of the method: as §1

[4] = compound: CCn1c(-c2nonc2N)nc2c(C#CC(C)(C)O)ncc(OC[C@H]3CCCNC3)c21 + Cc1nc(Nc2ncc(C(=O)Nc3c(C)cccc3Cl)s2)cc(N2CCN(CCO)CC2)n1 [Dasatinib] (partner 0.075 µM)
Summary of the method: as §1

Row | Cell Line | relative viability ([1]; first compound 0.5 µM) | relative viability ([1]; first compound 5 µM) | relative viability ([1]; first compound 15.81 µM) | relative viability ([1]; first compound 50 µM) | relative viability ([2]; first compound 0.5 µM) | relative viability ([2]; first compound 5 µM) | relative viability ([2]; first compound 15.81 µM) | relative viability ([2]; first compound 50 µM) | relative viability ([3]; first compound 0.01 µM) | relative viability ([3]; first compound 0.03162 µM) | relative viability ([3]; first compound 0.1 µM) | relative viability ([3]; first compound 0.3162 µM) | relative viability ([3]; first compound 1 µM) | relative viability ([4]; first compound 0.01 µM) | relative viability ([4]; first compound 0.03162 µM) | relative viability ([4]; first compound 0.1 µM) | relative viability ([4]; first compound 0.3162 µM) | relative viability ([4]; first compound 1 µM)
1 | SK-LU-1 | 0.33 | 0.362 | 0.345 | 0.343 | 0.502 | 0.658 | 0.678 | 0.737 | 1.02 | 0.907 | 0.85 | 0.894 | 0.676 | 0.191 | 0.161 | 0.199 | 0.188 | 0.158
2 | NCI-H1975 | 0.496 | 0.525 | 0.465 | 0.532 | 0.29 | 0.259 | – | 0.283 | 0.828 | 0.975 | 0.927 | 0.799 | 0.728 | 0.355 | 0.462 | 0.412 | 0.376 | 0.306
3 | NCI-H1651 | 0.657 | 0.758 | 0.7 | 0.653 | 0.497 | 0.64 | 0.7 | 0.541 | 0.816 | 0.854 | 0.798 | 0.715 | 0.842 | 0.43 | 0.402 | 0.412 | 0.396 | 0.454
4 | LCLC-97TM1 | 0.699 | 0.469 | 0.505 | 0.677 | 0.218 | 0.197 | 0.172 | 0.2 | – | 0.854 | 1.06 | 0.663 | 1.27 | 0.799 | 0.982 | 0.803 | 0.739 | 0.845
5 | NCI-H727 | 0.591 | 0.509 | 0.523 | 0.738 | 0.414 | 0.545 | 0.387 | 0.31 | 0.796 | 0.856 | 0.593 | 0.762 | 0.66 | 0.399 | 0.422 | 0.353 | 0.373 | 0.459
6 | NCI-H1355 | 0.441 | 0.374 | 0.385 | 0.395 | 0.462 | 0.41 | 0.384 | 0.435 | 1.03 | 0.944 | 0.998 | 0.926 | 1.02 | 0.64 | 0.66 | 0.738 | 0.682 | 0.755
7 | HOP-62 | 0.888 | 0.87 | 0.808 | 0.92 | 0.664 | 0.729 | 0.742 | 0.799 | 1.11 | 1.05 | 1 | 0.993 | 0.87 | 0.64 | 0.587 | 0.66 | 0.659 | 0.607
8 | NCI-H2085 | 0.733 | 0.571 | 0.52 | 0.678 | 0.388 | 0.43 | 0.365 | 0.439 | 0.8 | 0.7 | 0.601 | 0.574 | 0.573 | 0.21 | 0.272 | 0.278 | 0.255 | 0.228
